The text below walks through data of PubChem BioAssay (NCI).

“And” between values parts separate entries of the source, which are not always exact repeats. Identical values can stand only once.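 All cell lines were grown in 96-well plates and treated with compound for 48 hours. Abbreviation: GI50, concentration required for 50% inhibition of growth. The concentration for full growth arrest is given as TGI.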

Among the test systems are ACHN renal; EKVX NSCLC; HCT-15 colon; HOP-92 NSCLC; M14 melanoma; MALME-3M melanoma; MCF7 breast; MDA-MB-435; MDA-N; MOLT-4 leukemia; NCI-H460 lung; NCI-H522 lung; OVCAR-3 ovarian; PC-3 prostate; SK-MEL-2 melanoma; SK-MEL-5 melanoma; TK-10 renal; UACC-62 melanoma.
Assay in all cases: NCI tumour cell line growth inhibition, 48 h

As for `CC(=O)OC(/C=C/c1ccccc1)P1(=O)N(CC(C)(C)C)[C@@H]2CCCC[C@H]2N1CC(C)(C)C` (stereo partly drawn), the TGI with ACHN renal is 21.6 µM and 20.3 µM; in the assay on EKVX NSCLC it was 19.1 µM and 18.9 µM; with HCT-15 colon, 20.9 µM and 17.6 µM; in the assay on HOP-92 NSCLC, 26.4 µM; in the assay on M14 melanoma it was 17.5 µM and 18.9 µM; in the assay with MALME-3M melanoma, 26.8 µM and 26.4 µM. In addition, the TGI with MCF7 breast was 16 µM and 17.5 µM; with MDA-MB-435 it was 28.8 µM and 22.1 µM; with MDA-N, 23.1 µM and 21 µM; in the assay with MOLT-4 leukemia, 17.1 µM and 14.7 µM; in the assay on NCI-H460 lung it was 21.1 µM and 19 µM; with NCI-H522 lung, 13.3 µM and 12.8 µM. The TGI was 25.4 µM and 17.1 µM in the assay on OVCAR-3 ovarian; 12.1 µM and 10.1 µM with PC-3 prostate; 24.3 µM and 18.5 µM in the assay with SK-MEL-2 melanoma; 17.4 µM and 18.7 µM in the assay with SK-MEL-5 melanoma; 22.4 µM and 16.6 µM in the assay on TK-10 renal; 21.1 µM and 23.2 µM with UACC-62 melanoma. The GI50 with OVCAR-3 ovarian was 8.41 µM and 3.47 µM; in the assay on TK-10 renal it was 10.1 µM and 4.82 µM.
Regarding `CN(C)CCNC(=O)c1cccc2c(NCCN(C)C)c3ccccc3nc12`, the TGI worked out at 9.59 µM in the assay on ACHN renal; 8.03 µM in the assay with EKVX NSCLC; 24.7 µM with HCT-15 colon; 17.8 µM in the assay with HOP-92 NSCLC; 18.6 µM in the assay with M14 melanoma; 15.4 µM in the assay on MALME-3M melanoma. Further, the TGI in the assay with MCF7 breast amounted to 12.8 µM; in the assay on MDA-MB-435, 7.58 µM; in the assay with MDA-N, 8.18 µM; in the assay with MOLT-4 leukemia it was 6.29 µM; with NCI-H460 lung, 3.91 µM; in the assay on NCI-H522 lung it was 2.97 µM. In addition, the TGI in the assay on OVCAR-3 ovarian stood at 7.63 µM; in the assay with PC-3 prostate it was 7.34 µM; in the assay with SK-MEL-2 melanoma, 17.6 µM; in the assay with SK-MEL-5 melanoma, 13.6 µM; in the assay on TK-10 renal, 21.9 µM; in the assay on UACC-62 melanoma it was 9.19 µM.
Take `COc1ccc2nc3ccc(OC)cc3c(SCCO)c2c1`: the TGI in the assay on ACHN renal was more than 100 µM; with EKVX NSCLC it was more than 100 µM; in the assay with HCT-15 colon, more than 100 µM; in the assay with HOP-92 NSCLC, more than 100 µM; with M14 melanoma, more than 100 µM; in the assay with MALME-3M melanoma, more than 96.2 µM. The TGI in the assay on MCF7 breast is more than 62.3 µM; in the assay with MDA-MB-435, more than 100 µM; in the assay with MDA-N, more than 100 µM; in the assay with MOLT-4 leukemia, more than 30.3 µM; in the assay on NCI-H460 lung, more than 100 µM; in the assay on NCI-H522 lung, more than 34.9 µM. The TGI in the assay with OVCAR-3 ovarian was more than 100 µM; with PC-3 prostate it was more than 100 µM; in the assay with SK-MEL-2 melanoma it was more than 84 µM; in the assay with SK-MEL-5 melanoma it was more than 100 µM; with TK-10 renal, more than 100 µM; in the assay with UACC-62 melanoma, more than 100 µM.
Take `O=S(=O)(O)c1cc(O)c2c(N=Cc3ccccc3O)cc(S(=O)(=O)O)cc2c1`: the TGI in the assay with ACHN renal, in the assay with EKVX NSCLC, in the assay on HCT-15 colon, in the assay on HOP-92 NSCLC, with M14 melanoma and in the assay with MALME-3M melanoma was more than 100 µM in each case. Besides, the TGI in the assay on MCF7 breast, with MDA-MB-435, with MDA-N, in the assay with MOLT-4 leukemia, in the assay on NCI-H460 lung and with NCI-H522 lung was more than 100 µM in each case. Also, the TGI in the assay with OVCAR-3 ovarian, in the assay on PC-3 prostate, with SK-MEL-2 melanoma, in the assay on SK-MEL-5 melanoma, in the assay with TK-10 renal and in the assay on UACC-62 melanoma was more than 100 µM each time.
With `O=C1NC(SSC2=NNC3(C(=O)N2)c2ccccc2-c2ccccc23)=NNC12c1ccccc1-c1ccccc12`, the TGI in the assay on ACHN renal, in the assay on EKVX NSCLC, in the assay on HCT-15 colon, in the assay with HOP-92 NSCLC, in the assay with M14 melanoma and in the assay with MALME-3M melanoma was more than 10 µM in each case. Further, the TGI in the assay with MCF7 breast, in the assay on MDA-MB-435, in the assay with MDA-N, in the assay on MOLT-4 leukemia, in the assay with NCI-H460 lung and in the assay on NCI-H522 lung was more than 10 µM each time. For the same compound, the TGI in the assay on OVCAR-3 ovarian, in the assay on PC-3 prostate, with SK-MEL-2 melanoma, in the assay on SK-MEL-5 melanoma, in the assay with TK-10 renal and in the assay with UACC-62 melanoma was more than 10 µM throughout.
Regarding `COC(=O)NCCc1[nH]nc2c1C(=O)C=C(N1CCOCC1)C2=O`, the TGI in the assay on ACHN renal, in the assay with EKVX NSCLC, in the assay on HCT-15 colon, in the assay on HOP-92 NSCLC, in the assay on M14 melanoma and in the assay with MALME-3M melanoma was more than 100 µM each time. In addition, the TGI in the assay with MCF7 breast, in the assay with MDA-MB-435, with MDA-N, with MOLT-4 leukemia, in the assay on NCI-H460 lung and with NCI-H522 lung was more than 100 µM throughout. The TGI in the assay on OVCAR-3 ovarian, in the assay on PC-3 prostate, in the assay on SK-MEL-2 melanoma, in the assay with SK-MEL-5 melanoma, in the assay with TK-10 renal and in the assay on UACC-62 melanoma was more than 100 µM each time.
As for `NC(N)=N/N=C/c1nc2n(c1[N+](=O)[O-])CCS2`, the TGI is more than 100 µM in the assay on ACHN renal; 76.5 µM in the assay on EKVX NSCLC; more than 100 µM in the assay on HCT-15 colon; more than 100 µM in the assay with HOP-92 NSCLC; more than 100 µM in the assay with M14 melanoma; 30.8 µM in the assay with MALME-3M melanoma. The TGI in the assay with MCF7 breast is more than 100 µM; in the assay on MDA-MB-435, 74.1 µM; in the assay with MDA-N, more than 100 µM; in the assay on MOLT-4 leukemia, 63.7 µM; in the assay on NCI-H460 lung, 48.4 µM; with NCI-H522 lung, more than 100 µM. For the same compound, the TGI in the assay with OVCAR-3 ovarian was 70.2 µM; with PC-3 prostate, more than 100 µM; with SK-MEL-2 melanoma, 44.7 µM; in the assay on SK-MEL-5 melanoma, 34.4 µM; in the assay with TK-10 renal, more than 100 µM; in the assay with UACC-62 melanoma it was more than 100 µM.
